Values quoted from earlier work in US6949260B2, “Method for treatment of inflammation and pain in mammals” (Metagenics, Inc., priority 2000, dated 2005).

Tests used:
[1] = system: human platelet; settings: induced by arachidonic acid, adrenaline and collagen
[2] = system: thromboxane B2 production; settings: in vitro

COc1cc(/C=C/C(=O)CC(=O)/C=C/c2ccc(O)c(OC)c2)ccc1O [Curcumin]
inhibition of human platelet aggregation [1]: inhibit human platelet aggregation | thromboxane B2 production from arachidonic acid [2]: inhibits thromboxane B2 production
